From patent US20240245670A1, “DOSING REGIMEN AND PHARMACEUTICAL COMBINATION COMPRISING 3-(1-OXOISOINDOLIN-2-YL)PIPERIDINE-2,6-DIONE DERIVATIVES” (Novartis AG, priority 2018, published 2024) come the findings set out here.

One data set deals with monkey IKZF2. Briefly: IKZF2 degradation, species relevance (monkey). The procedure:
(§1) The starting dose of I-57 selected for this study is supported by 4-week GLP toxicology studies performed in cynomolgus monkeys. […] GLP toxicity studies identified 30 mg/kg as the HNSTD in monkey and supported a starting dose up to 100 mg QD in human (BSA scaled HED and using a safety factor of 6). The selected dose of 20 mg is anticipated to result in a significant but sub-maximal IKZF2 degradation in human PBMCs and TILs (50-90%), based on PK/PD modeling of I-57 exposure and IKZF2 degradation in cynomolgus PBMCs. More IKZF2 degradation may be required to change downstream biology. Therefore, 20 mg is considered safe. Escalation from this starting dose will facilitate the determination of the minimal required dose which provides optimal IKZF2 degradation to impact downstream biological activity.

The target in the next data set is T1, rat IKZF2 (Rattus norvegicus, UniProt A0A0G2JVA9).
T1 construct: assessed in primary PBMCs obtained from rabbit, dog, pig, cynomolgus monkey, and human, and in primary splenocytes of mouse and rat; endogenous in cells; host or cells: primary rat splenocytes
Briefly: IKZF2 degradation, species relevance (rat). How it is done: as §1

The target in a further data set is T2, IKZF2 (Oryctolagus cuniculus, UniProt A0A5F9CPW0).
T2 construct: endogenous in cells; host or cells: primary rabbit PBMCs
Description: IKZF2 degradation in primary PBMCs in vitro (FIG. 3). It counts as cell-based. The following applies: primary rabbit PBMCs; concentrations up to 10 μM. The procedure: FIG. 3. is a bar graph showing the degradation of IKZF2 in primary PBMCs obtained from rabbit, dog, pig, cynomolgus monkey and human, and in primary splenocytes of mouse and rat and treated with Compound I-57.
I-57 mediated degradation of IKZF2 was assessed in primary PBMCs obtained from rabbit, dog, pig, cynomolgus monkey, and human, and in primary splenocytes of mouse and rat. […] Species-specificity due to species specific alteration CRBN primary structure have previously been described with other compounds known to interact with the CRBN ubiquitin ligase complex to elicit protein specific degradation (Krönke et al, 2015).

The subject of a further data set is primary human Tregs. Briefly: Suppressive potency of Treg cells expanded in vitro in the presence of compound (FIG. 2C). The class given is cell-based. The text has this:
FIG. 2C is a bar graph showing the suppressive potency of Treg cells expanded in the presence of Compound I-57.
Although the specific transcriptional targets of IKZF2 remain to be defined, IKZF2 binds to and represses transcription from the IL-2 promoter region (Baine 2013). […] Finally, an in vitro assay recapitulating hallmarks of T cell dysfunction/exhaustion, by sequential TCR stimulation of isolated primary human T cells, was used to test the hypothesis that […] would rescue the exhausted phenotype and enhance Teff cell activity. […] In addition to IKZF1, other known cereblon substrates including translation termination factor G1 to S phase transition 1 (GSPT1) are not degraded by I-57 (FIG. 1).

Data set [1] in a line: Toxicology studies incl. 4-week GLP studies in rats and cynomolgus monkeys. The class given is in vivo. The following applies: from 4-week GLP toxicology studies in rats (30, 100, 300 mg/kg/day) and cynomolgus monkeys (3, 10, 30 mg/kg/day). The text has this: The non-clinical safety profile of I-57 was established in vitro, and in vivo in rats and cynomolgus monkeys in studies up to 4-weeks duration. Based on the outcome of these studies, QTc interval prolongation was identified as the principal safety signal for I-57. There were other toxicities such as diarrhea and vomiting in monkeys, and mortality, clinical signs and target organ toxicities in rats; however, these occurred at exposures far above those expected to result in clinical activity.
Preclinical safety data in 4-week GLP toxicology studies in rats (30, 100 and 300 mg/kg/day) and cynomolgus monkeys (3, 10 and 30 mg/kg/day) provide maximum recommended starting dose (MRSD) of 100 mg in humans. Based on non-clinical animal models including AdT studies, cynomolgus vaccination studies and cynomolgus PK/PD studies (See Example 1) I-57 at 20 mg is expected to result in submaximal IKZF2 degradation in PBMCs and tumor. This is considered safe and will permit PK/PD characterization and determination of the lowest dose of I-57 at which maximal detectable IKZF2 degradation is achieved.

Data set [2] relates to IKZF2 expression in FOXP3+ T cells from PBMCs. Description: PD after repeated daily oral dosing in immunized cynomolgus monkeys: IKZF2 by flow cytometry (FIG. 9A). It counts as in vivo, cynomolgus monkey. The procedure: FIG. 9A. is a graph showing the degradation of IKZF2 measured in FOXP3+ T cells upon repeated daily dosing in immunized cynomolgus monkeys treated daily with Compound I-57. Compound treatment was initiated at day 5.
The PK/PD relationship of I-57 was further examined in cynomolgus monkeys after repeated daily oral doses of 0.1 and 3 mg/kg. In this study, a cohort of animals were initially immunized with an antigen-adjuvant mixture (KLH/Squalene). The experiment was designed to assess the effect of I-57 exposure, and the resulting IKZF2 degradation, on immune response during immunization to test the hypothesis that IKZF2 degradation would result in increased proliferation of stimulated T-cells. In the experiment, daily I-57 oral treatment was initiated 5 days after immunization. An immunization booster dose was administered on day 15. I-57 plasma concentration and IKZF2 expression (as determined by flow cytometry) in FOXP3+ T cells from PBMCs were determined (FIG. 9A and FIG. 9B).
Consistent with previous findings, IKZF2 degradation was detected 24 h after the first dose (at day 6) (FIG. 9A and FIG. 9B). The levels of IKZF2 decreased further upon repeat dosing and reached a steady-state level approximately 72 h after initiation of treatment. This level of degradation was maintained throughout the remainder of the treatment (24 days).
For orientation: Flow cytometry measures light scatter and fluorescence of single cells or particles in a stream.

T1 sequence (A0A0G2JVA9 1-467): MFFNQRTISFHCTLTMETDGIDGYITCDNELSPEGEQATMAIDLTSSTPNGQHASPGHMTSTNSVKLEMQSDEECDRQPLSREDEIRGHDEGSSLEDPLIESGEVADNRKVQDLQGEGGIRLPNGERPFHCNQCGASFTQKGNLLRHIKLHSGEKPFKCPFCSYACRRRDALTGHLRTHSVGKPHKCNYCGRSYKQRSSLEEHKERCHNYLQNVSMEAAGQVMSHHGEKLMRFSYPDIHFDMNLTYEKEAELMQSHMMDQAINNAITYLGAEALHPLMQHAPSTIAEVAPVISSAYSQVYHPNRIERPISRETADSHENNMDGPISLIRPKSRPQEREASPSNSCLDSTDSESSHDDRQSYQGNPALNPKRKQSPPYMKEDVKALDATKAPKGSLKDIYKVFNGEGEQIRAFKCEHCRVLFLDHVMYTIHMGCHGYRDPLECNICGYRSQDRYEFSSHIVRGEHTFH
T1 sequence (Q56AP7 whole entry partner): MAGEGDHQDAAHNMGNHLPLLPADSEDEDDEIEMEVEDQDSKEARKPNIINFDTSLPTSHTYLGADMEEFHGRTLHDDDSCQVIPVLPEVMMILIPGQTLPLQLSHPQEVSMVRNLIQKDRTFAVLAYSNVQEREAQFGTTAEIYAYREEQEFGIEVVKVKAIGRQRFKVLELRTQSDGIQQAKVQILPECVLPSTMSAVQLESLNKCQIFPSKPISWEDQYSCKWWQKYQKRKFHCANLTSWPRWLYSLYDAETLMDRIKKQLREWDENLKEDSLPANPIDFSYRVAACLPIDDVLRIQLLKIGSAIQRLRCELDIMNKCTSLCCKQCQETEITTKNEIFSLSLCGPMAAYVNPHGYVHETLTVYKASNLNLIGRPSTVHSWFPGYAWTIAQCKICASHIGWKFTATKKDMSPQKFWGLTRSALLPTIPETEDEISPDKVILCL
T2 sequence (A0A5F9CPW0 1-526): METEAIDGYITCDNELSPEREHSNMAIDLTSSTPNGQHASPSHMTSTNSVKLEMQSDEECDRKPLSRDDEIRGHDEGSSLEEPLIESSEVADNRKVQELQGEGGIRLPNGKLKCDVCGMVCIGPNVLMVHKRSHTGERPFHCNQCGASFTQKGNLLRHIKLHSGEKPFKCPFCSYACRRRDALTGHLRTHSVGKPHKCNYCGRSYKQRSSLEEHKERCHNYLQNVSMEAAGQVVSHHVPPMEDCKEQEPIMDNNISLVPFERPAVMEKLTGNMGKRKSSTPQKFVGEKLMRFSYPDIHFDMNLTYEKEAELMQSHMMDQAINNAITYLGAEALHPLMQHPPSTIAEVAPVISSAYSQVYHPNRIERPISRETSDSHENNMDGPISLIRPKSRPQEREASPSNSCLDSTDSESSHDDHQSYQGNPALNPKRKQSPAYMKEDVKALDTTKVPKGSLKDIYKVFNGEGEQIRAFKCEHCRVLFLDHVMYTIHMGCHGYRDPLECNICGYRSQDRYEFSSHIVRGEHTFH

On to `O=C1CCC(N2Cc3cc(C4CCN(Cc5ccccc5)CC4)ccc3C2=O)C(=O)N1` (stereo not shown) [Compound I-57, 3-(5-(1-benzylpiperidin-4-yl)-1-oxoisoindolin-2-yl)piperidine-2,6-dione], for which the “degradation of monkey IKZF2” value in the data set with monkey IKZF2 is listed as “can degrade monkey”. Besides, the “degradation of rat IKZF2” value at rat IKZF2 was “not rat”. Also, at IKZF2, the “degradation of IKZF2” value is listed as “Degradation was observed”. The “proportion of IKZF2-expressing cells” value in the data set on primary human Tregs was “remained unchanged”. In addition, in data set [1], the “maximum recommended starting dose (MRSD) in humans” value was 100 mg. Also, the “time to steady-state level of IKZF2” value in data set [2] (after initiation of treatment, repeat daily dosing) is “approximately 72 h”. Further, the “time at which IKZF2 degradation was detected” value in data set [2] (after the first dose (at day 6), daily oral 0.1 and 3 mg/kg) is on record as 24 h.
